ChEMBL document CHEMBL1201862, “PubChem BioAssay data set” (2004)
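Interpolation was linear, between the two tested concentrations surrounding the appropriate level; five concentrations were tested over 48 hours in 96-well plates. GI50 marks 50% less growth.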 The source made the active and inactive calls. No stated cut-off is given here; in the data, active = GI50 up to about 1.1 µM and inactive = higher.

Columns and labels:
Assay in all cases: inhibition of tumour cell growth, NCI panel, 48 h
TK-10 = test system: TK-10
HL-60 = test system: HL-60
NCI-H522 = test system: NCI-H522
NCI-H460 = test system: NCI-H460
UACC-62 = test system: UACC-62
BT-549 = test system: BT-549
SF-539 = test system: SF-539
SF-295 = test system: SF-295
HCT-116 = test system: HCT-116
SF-268 = test system: SF-268
RPMI-8226 = test system: RPMI-8226
UACC-257 = test system: UACC-257
HT-29 = test system: HT-29
MCF7 = test system: MCF7
HCC 2998 = test system: HCC 2998
A549 = test system: A549
Malme-3M = test system: Malme-3M
CCRF-CEM = test system: CCRF-CEM
RXF 393 = test system: RXF 393
SNB-19 = test system: SNB-19
HOP-62 = test system: HOP-62
CAKI-1 = test system: CAKI-1
DU-145 = test system: DU-145
SN12C = test system: SN12C
MOLT-4 = test system: MOLT-4
OVCAR-5 = test system: OVCAR-5
SK-MEL-28 = test system: SK-MEL-28
A498 = test system: A498
K562 = test system: K562
SR = test system: SR
KM12 = test system: KM12
OVCAR-4 = test system: OVCAR-4
PC-3 = test system: PC-3
IGROV-1 = test system: IGROV-1
SK-OV-3 = test system: SK-OV-3
ACHN = test system: ACHN
786-0 = test system: 786-0
Hs-578T = test system: Hs-578T
NCI-H226 = test system: NCI-H226
EKVX = test system: EKVX
NCI-H23 = test system: NCI-H23
SW-620 = test system: SW-620
NCI/ADR-RES = test system: NCI/ADR-RES
HOP-92 = test system: HOP-92
MDA-MB-435 = test system: MDA-MB-435
SK-MEL-5 = test system: SK-MEL-5
SNB-75 = test system: SNB-75
SK-MEL-2 = test system: SK-MEL-2
OVCAR-8 = test system: OVCAR-8
OVCAR-3 = test system: OVCAR-3
M14 = test system: M14
LOX IMVI = test system: LOX IMVI
U-251 = test system: U-251
T47D = test system: T47D
COLO 205 = test system: COLO 205
HCT-15 = test system: HCT-15
UO-31 = test system: UO-31
MDA-MB-231 = test system: MDA-MB-231

**Q.** Which GI50 (TK-10) does the source give for `CCCCc1ccc(Nc2nc(SC)c3[nH]cnc3n2)cc1` here?
**A.** 45.2 µM (inactive)

**Q.** What about the GI50 (HL-60) of the same molecule?
**A.** 3.43 µM (inactive)

**Q.** And the GI50 (NCI-H522)?
**A.** 20.6 µM (inactive)

**Q.** What about the GI50 (NCI-H460) of the same molecule?
**A.** 13.9 µM (inactive)

**Q.** And the GI50 (UACC-62)?
**A.** 45.5 µM (inactive)

**Q.** What about the GI50 (BT-549) of the same molecule?
**A.** > 100 µM (inactive)

**Q.** And the GI50 (SF-539)?
**A.** 36.6 µM (inactive)

**Q.** And the GI50 (SF-295)?
**A.** > 47.9 µM (inactive)

**Q.** What about the GI50 (HCT-116) of the same molecule?
**A.** 23.6 µM (inactive)

**Q.** And the GI50 (SF-268)?
**A.** 65.5 µM (inactive)

**Q.** And the GI50 (RPMI-8226)?
**A.** > 56 µM (inactive)

**Q.** What about the GI50 (UACC-257) of the same molecule?
**A.** > 100 µM (inactive)

**Q.** And the GI50 (HT-29)?
**A.** 15.8 µM (inactive)

**Q.** And the GI50 (MCF7)?
**A.** > 24.4 µM (inactive)

**Q.** And the GI50 (HCC 2998)?
**A.** > 80.4 µM (inactive)

**Q.** What about the GI50 (A549) of the same molecule?
**A.** > 100 µM (inactive)

**Q.** What about the GI50 (Malme-3M) of the same molecule?
**A.** > 100 µM (inactive)

**Q.** What about the GI50 (CCRF-CEM) of the same molecule?
**A.** 6.19 µM (inactive)

**Q.** What about the GI50 (RXF 393) of the same molecule?
**A.** 28.2 µM (inactive)

**Q.** And the GI50 (SNB-19)?
**A.** 36.6 µM (inactive)

**Q.** And the GI50 (HOP-62)?
**A.** 10.2 µM (inactive)

**Q.** And the GI50 (CAKI-1)?
**A.** 16.9 µM (inactive)

**Q.** And the GI50 (DU-145)?
**A.** > 100 µM (inactive)

**Q.** What about the GI50 (SN12C) of the same molecule?
**A.** > 84.9 µM (inactive)

**Q.** And the GI50 (MOLT-4)?
**A.** 2.81 µM (inactive)

**Q.** And the GI50 (OVCAR-5)?
**A.** > 100 µM (inactive)

**Q.** What about the GI50 (SK-MEL-28) of the same molecule?
**A.** > 100 µM (inactive)

**Q.** What about the GI50 (A498) of the same molecule?
**A.** 18.7 µM (inactive)

**Q.** What about the GI50 (K562) of the same molecule?
**A.** 3.61 µM (inactive)

**Q.** And the GI50 (SR)?
**A.** 2.01 µM (inactive)

**Q.** What about the GI50 (KM12) of the same molecule?
**A.** 17.9 µM (inactive)

**Q.** What about the GI50 (OVCAR-4) of the same molecule?
**A.** > 100 µM (inactive)

**Q.** And the GI50 (PC-3)?
**A.** > 100 µM (inactive)

**Q.** And the GI50 (IGROV-1)?
**A.** 24.7 µM (inactive)

**Q.** What about the GI50 (SK-OV-3) of the same molecule?
**A.** > 43.5 µM (inactive)

**Q.** What about the GI50 (ACHN) of the same molecule?
**A.** 12.7 µM (inactive)

**Q.** And the GI50 (786-0)?
**A.** 16.4 µM (inactive)

**Q.** What about the GI50 (Hs-578T) of the same molecule?
**A.** 43 µM (inactive)

**Q.** What about the GI50 (NCI-H226) of the same molecule?
**A.** > 73.6 µM (inactive)

**Q.** And the GI50 (EKVX)?
**A.** 24.9 µM (inactive)

**Q.** And the GI50 (NCI-H23)?
**A.** 28.6 µM (inactive)

**Q.** What about the GI50 (SW-620) of the same molecule?
**A.** 24.5 µM (inactive)

**Q.** And the GI50 (NCI/ADR-RES)?
**A.** 23.6 µM (inactive)

**Q.** What about the GI50 (HOP-92) of the same molecule?
**A.** 15.5 µM (inactive)

**Q.** What about the GI50 (MDA-MB-435) of the same molecule?
**A.** 5.33 µM (inactive)

**Q.** And the GI50 (SK-MEL-5)?
**A.** 17.7 µM (inactive)

**Q.** And the GI50 (SNB-75)?
**A.** > 100 µM (inactive)

**Q.** And the GI50 (SK-MEL-2)?
**A.** > 38.5 µM (inactive)

**Q.** What about the GI50 (OVCAR-8) of the same molecule?
**A.** 30.2 µM (inactive)

**Q.** What about the GI50 (OVCAR-3) of the same molecule?
**A.** > 55 µM (inactive)

**Q.** And the GI50 (M14)?
**A.** > 100 µM (inactive)

**Q.** What about the GI50 (LOX IMVI) of the same molecule?
**A.** > 46.6 µM (inactive)

**Q.** And the GI50 (U-251)?
**A.** 26.2 µM (inactive)

**Q.** What about the GI50 (T47D) of the same molecule?
**A.** > 100 µM (inactive)

**Q.** What about the GI50 (COLO 205) of the same molecule?
**A.** > 91.2 µM (inactive)

**Q.** What about the GI50 (HCT-15) of the same molecule?
**A.** > 32.9 µM

**Q.** What about the GI50 (UO-31) of the same molecule?
**A.** > 78.2 µM (inactive)

**Q.** What about the GI50 (MDA-MB-231) of the same molecule?
**A.** 84.3 µM (inactive)
